# pIC50: −log10 of the molar value.
# Tests used:
# [1] = test system: colorectal cancer cell line HCT116; assay: CellTiter-Glo tumor cell proliferation, HCT116; type: cell-based, human; settings: Homo sapiens, HCT-116; CellTiter-Glo, 72 h
# Method in brief: (§1)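 Cells seeded at 2×10^4/mL, grown 24 h at 37° C, 5% CO2, then treated in triplicate with medium-diluted compound for 72 h. CellTiter-Glo luminescence read after 20 min at 37° C; inhibition versus untreated control RLU, IC50 calculated.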
# HCT116 = assay: MTT antitumor spectrum, HCT116; type: cell-based; settings: Homo sapiens, HCT-116, 72 h
# Method: (§2) The activity of compound 30 was evaluated by MTT method against seven tumor cell models, A549, A375, HCT116, MDA-MB-231, HepG2, PC3 and MCF-7. All cells used in the study were prepared at a concentration of 3.5×10^3 cells/mL, and each […] cell suspension was inoculated on a 96-well microtiter plate for 24 hours (37° C., 5% CO2). Then different concentrations of compound 30 were added, incubated for 72 hours; and for the control group, equivalent concentrations of DMSO (final concentration 0.5%) were added. The number of viable cells was measured by MTT (3-(4,5-dimethylthiazol-2-yl)-diphenyl tetrazolium bromide) method, and the OD value at 492/620 nm was recorded. The IC50 value was calculated by Prism-Graphpad software based on the results of triplicate experiments.
# A375 = assay: MTT antitumor spectrum, A375; type: cell-based; settings: Homo sapiens, A-375, 72 h
# Method: as §2
# MDA-MB-231 = assay: MTT antitumor spectrum, MDA-MB-231; type: cell-based; settings: Homo sapiens, 72 h
# Method: as §2
# [2] = biological target: T1, 20S proteasome β5 subunit (Homo sapiens, UniProt P20618+P28074); assay: Proteasome-Glo Cell-Based assay in K562 cells, β5 subunit; settings: 2 h incubation
# T1 construct: endogenous in cells; host or cells: K562
# Method: Proteasome-Glo™ Cell-Based assay kit (Promega, USA) was used to determine the activity of the target compound against the 20S proteasome. Human chronic myeloid leukemia cell line (K562, 6000 cells/well) was inoculated into the 384 well plate in 20 μL/well. The cells were then equilibrated at 37° C., 5% CO2 for 2 hours. Each 384 well plate was set with the mock group and treatment group, and each well of the treatment group was added with 5 μL of the compound solution with the final concentration of 40 μM, 13.3 μM, 4.44 μM, 1.48 μM, 0.49 μM, 0.16 μM, 0.055 μM, 0.0183 μM, […], 0.0061 μM. The cells was incubated with the drugs for 2 hours at 37° C., 5% CO2 before adding 25 μL of corresponding Proteasome-Glo™ Cell-Based reagent per well. The relative luminescence unit (RLU) was measured by using Multimode Microplate Reader Varioskan Flash (Thermo Scientific, USA) after 15 min and compared with the RLU of the control group. SigmaPlot 10.0 software was used to calculate IC50 value.
# [3] = test system: Human melanoma cell line A375; assay: CellTiter-Glo tumor cell proliferation, A375; type: cell-based; settings: Homo sapiens, A-375; CellTiter-Glo, 72 h
# Method in brief: as §1
# [4] = test system: human multiple myeloma RPMI 8226; assay: Pharmacodynamic study, RPMI 8226 subcutaneous xenograft; type: in vivo, female NOD/SCID mice; settings: BIW, tail vein, day of the last administration; for Tumor volume (x ± S): in mm³ (unit assumed)
# Method: The anti-tumor effect in vivo was studied by using the tumor animal model obtained by subcutaneous xenotransplantation of cell lines into female NOD/SCID mice (purchased from Sipeifu Biotechnology Co., Ltd.).
# RPMI 8226 cells were subcutaneously inoculated into NOD/SCID mice, and human multiple myeloma subcutaneously transplanted tumor model was successfully established 9 days after inoculating the cells. The test was divided into vehicle (0.3 mL DMSO, 0.27 mL Tween-80, 2.43 mL normal saline) control group, compound 30 low-dose group (20 mg/kg), compound 30 medium-dose group (30 mg/kg), compound 30 high-dose group (40 mg/kg), compound 39 low-dose group (5 mg/kg), compound 39 medium-dose group (10 mg/kg), and compound 39 high-dose group (15 mg/kg), and bortezomib (API purchased from Yangtze River Pharmaceutical) was used as the positive control group (0.5 mg/kg); 5 tumor-bearing mice established above in each group were administered by tail vein twice a week for nine times in total. The long diameter a (mm) of the tumor and the short diameter b (mm) of the tumor perpendicular to the long diameter were measured with digital electronic caliper twice a week. The calculation formula of tumor volume was: TV=ab^2/2; and the calculation formula of relative tumor volume was: RTV=Vt/Vo, Vo was the tumor volume measured when the mice in each group were divided into cages and administered for the first time (d1), and Vt was the tumor volume measured at the last administration. The animals were sacrificed 31 days (d22) after inoculation of RPMI 8226 cells, and weighed. The tumor mass was dissected and weighed, and the tumor inhibition rate was calculated according to the following formula: […]
# MCF-7 = assay: MTT antitumor spectrum, MCF-7; type: cell-based; settings: Homo sapiens, MCF7, 72 h
# Method: as §2
# A549 = assay: MTT antitumor spectrum, A549; type: cell-based; settings: Homo sapiens, 72 h
# Method: as §2
# [5] = test system: liver cancer cell line HepG2; assay: CellTiter-Glo tumor cell proliferation, HepG2; type: cell-based, human; settings: Homo sapiens, HepG2, 72 h
# Method: The effect of compounds on tumor cell proliferation was detected by CellTiter-Glo method. Human melanoma cell line A375, non-small cell lung cancer cell line A549, human lung adenocarcinoma cell line H1299, colorectal cancer cell line HCT116, liver cancer cell line HepG2 and gastric cancer cell line MGC80-3 were cultured in vitro. The cells were collected after growing to the logarithmic growth phase, centrifuged at 1000 rpm for 5 min, and suspended in an appropriate amount of medium after discarding the supernatant, and the cell concentration was adjusted to 2×10^4/mL. The cell suspension was inoculated onto the 384-well cell culture plate, with 50 μL per well. After being cultured in a cell incubator (37° C., 5% CO2) for 24 h, 5 μL of drug diluted by the cell culture medium was added into each well for the treatment group. Each drug was provided in triplicate. After 72 h incubation in the incubator, 20 μL of CellTiter-Glo was added into each well, and the relative luminescence unit (RLU) was measured with Multimode Microplate Reader Varioskan Flash (Thermo Scientific, USA) after placed at 37° C. for 20 min, and compared with the RLU of the control group. SigmaPlot 10.0 software was used to calculate the inhibition rate and IC50 value.
smiles,measurement,setting,value
"CC(C)C[C@H](NC(=O)Cn1nc(-c2cccc(OCCN3CCOCC3)c2)cc1-c1ccccc1)B(O)O.Cl [Compound 30, (R)-(3-methyl-1-(2-(3-(3-(2-morpholinoethoxy)phenyl)-5-phenyl-1H-pyrazol-1-yl)-acetamido)butyl)boronic acid hydrochloride]",pIC50,[1],6.20
same,pIC50,HCT116,6.20
same,pIC50,A375,6.09
same,pIC50,MDA-MB-231,6.03
same,pIC50,[2],6.40
same,pIC50,[3],6.09
same,Relative tumor volume (x ± S),[4]; 20 mg/kg,2.57 ± 0.61
same,T/C (%),[4]; 20 mg/kg,27.55%
same,TGI (%),[4]; 20 mg/kg,72.45%
same,Tumor volume (x ± S),[4]; 20 mg/kg,267.27 ± 77.46
same,Relative tumor volume (x ± S),[4]; 30 mg/kg,1.63 ± 0.32
same,T/C (%),[4]; 30 mg/kg,17.47%
same,TGI (%),[4]; 30 mg/kg,82.53%
same,Tumor volume (x ± S),[4]; 30 mg/kg,147.56 ± 33.02
same,Relative tumor volume (x ± S),[4]; 40 mg/kg,0.74 ± 0.12
same,T/C (%),[4]; 40 mg/kg,7.93%
same,TGI (%),[4]; 40 mg/kg,92.07%
same,Tumor volume (x ± S),[4]; 40 mg/kg,72.06 ± 13.62
same,pIC50,MCF-7,6.16
same,pIC50,A549,5.52
"CC(C)C[C@H](NC(=O)Cn1nc(-c2cccc(OCCN3CCN(c4ccccc4)CC3)c2)cc1-c1ccccc1)B(O)O.Cl [Compound 39, (R)-(3-methyl-1-(2-(5-phenyl-3-(3-(2-(4-phenylpiperazin-1-yl)ethoxy)phenyl)-1H-pyrazol-1-yl)acetamido)butyl)boronic acid hydrochloride]",pIC50,[1],7.08
same,pIC50,[5],7.27
same,pIC50,[2],6.70
same,Relative tumor volume (x ± S),[4]; 5 mg/kg,1.51 ± 0.38
same,T/C (%),[4]; 5 mg/kg,16.18%
same,TGI (%),[4]; 5 mg/kg,83.82%
same,Tumor volume (x ± S),[4]; 5 mg/kg,177.55 ± 51.28
same,Relative tumor volume (x ± S),[4]; 10 mg/kg,0.62 ± 0.28
same,T/C (%),[4]; 10 mg/kg,6.65%
same,TGI (%),[4]; 10 mg/kg,93.35%
same,Tumor volume (x ± S),[4]; 10 mg/kg,75.06 ± 19.64
same,Relative tumor volume (x ± S),[4]; 15 mg/kg,0.36 ± 0.02
same,T/C (%),[4]; 15 mg/kg,3.86%
same,TGI (%),[4]; 15 mg/kg,96.14%
same,Tumor volume (x ± S),[4]; 15 mg/kg,21.79 ± 3.50

# From patent publication US12473305B2, “Pyrazole boronic acid compound, pharmaceutical composition containing same, and uses thereof” (BEIJING SONGRUN PHARMACEUTICAL TECHNOLOGY CO., LTD., priority 2020, dated 2025)
